The source of these data is US20200407717A1, “METHODS OF MODULATING ANTISENSE ACTIVITY” (Ionis Pharmaceuticals, Inc., priority 2018, published 2020).

The target of data set [1] is T1, EGFR (Homo sapiens, UniProt P00533). The data set is described as follows: Direct NanoBRET binding assay. More on the design: made in house; host or cells: HEK293 cells. The following applies: Direct BRET, AF594-labeled oligonucleotide 0.1-10,000 nM. Here is the method:
(§1) NanoBRET (bioluminescence resonance energy transfer) binding assays were performed as described in Vickers and Crooke. PLOS One, 11(8), (2016). An EGFR NLuc construct was prepared by first amplifying human EGFR from the full length cDNA clone (Origene RC217223) with forward PCR primer 5′-[…]-3′ (SEQ ID NO: 1) and reverse PCR primer 5′-[…] (SEQ ID NO: 2). The amplified product was ligated into the NheI and XhoI sites of the NanoLuc expression vector pFC32K Nluc CMV-Neo (Promega). Protein was expressed in HEK293 cells and isolated using Protein G magnetic beads. For competitive BRET, the Alexafluor594-labeled modified oligonucleotide 766636 was diluted into water in opaque white 96-well plates at 10 nM and competed with 0.1-10,000 nM of unlabeled modified oligonucleotide. […] of 2× binding buffer containing […] (relative luminescence units) beads/well was added and plates were shaken for 10 minutes at room temperature. Nanoluciferase activity and BRET were measured in a Glowmax Discover plate reader and EC50 values, shown in the tables below, were calculated using GraphPad Prism. For direct BRET, Alexafluor594 modified nucleotides were diluted at 0.1-10,000 nM and experiments were performed as described above.
For orientation: BRET reads energy transfer from a luciferase to a nearby fluorophore.

Data set [2] addresses T1, EGFR. The data set is described as follows: Pull-down assay in the presence of EGF. More on the design: endogenous in cells; host or cells: A431 cells. The format is binding. On the procedure:
A431 cells were treated with 100 ng/mL, 200 ng/mL, or 400 ng/mL EGF and then lysed. The cell lysates were mixed with beads bound to compound no. 451104, as prepared as in Example 1. Proteins were eluted with compound no. 116847 and run on a SDS-PAGE followed by western blot, as in Example 1. The same membrane was sequentially blotted for total EGFR (T-EGFR), phosphorylated EGFR (P-EGFR, ab205827, Abcam), nucleolin (ab22758, Abcam), and TCP1β. […] 451104 to EGFR.
In a similar experiment in which EGF was added after cell lysis, A431 cells were lysed and mixed with beads bound to compound no. 451104. Varying concentrations of EGF were added during the elution step with compound no. 116847.

For data set [3], the system named is EGFR. As to the kind of experiment: Pulse-chase EGFR synthesis and degradation, A431 cells. The format is cell-based. On the procedure:
In order to test the effects of a PS-ASO on EGFR synthesis and degradation, A431 cells were incubated with either compound no. 116847 or no PS-ASO compound for 16 hours. A pulse-chase protocol was then performed in which the cells were incubated for 20 minutes in cysteine and methionine free media followed by incubation with [^35S]-Met and [^35S]-Cys in order to analyze newly synthesized protein. Cell samples were collected in RIPA buffer after 50 minutes (FIG. 6A) or at the times indicated in the tables below, and cell lysates were immunoprecipitated with EGFR antibody or s100a10 antibody (610071, BD Bioscience). The resulting, labeled immunocomplexes were resolved by SDS-PAGE and visualized by autoradiography using phosphoimager. FIG. 6A and Table 13 show the levels of nascent EGFR protein and nascent s100a10, a control protein. […] 116847 relative to cells that were not incubated with an ASO.

In data set [4] the test system is EGF-EGFR signaling. As to the kind of experiment: EGFR signaling western blot (p-EGFR, p-ERK), A431 cells. The format is cell-based. On the procedure:
In order to test the effects of a PS-ASO on EGFR signaling, A431 cells were incubated with compound no. 116847 or no PS-ASO compound for 16 hours. All cells were then treated with EGF prior to being subjected to the pulse-chase protocol described above. Cell lysates were run on a SDS-PAGE gel and analyzed by sequential western blot for phosphorylated EGFR (P-EGFR), total EGFR (T-EGFR), phosphorylated ERK (P-ERK), and total ERK (T-ERK) using the antibodies described above for EGFR, 4370 for P-ERK (Cell Signaling Technology), and 4695 for T-ERK (Cell Signaling Technology).
110080, 25690, 25699, 395251, or 395254 at 2 μM for 16 hours prior to carrying out the pulse-chase experiment described above.

Data set [5] addresses T1, EGFR. As to the kind of experiment: Competitive NanoBRET binding assay. More on the design: made in house; host or cells: HEK293 cells. The following applies: Competitive BRET vs 10 nM AF594-labeled 766636. On the procedure: as §1
Data set [6] addresses T1, EGFR. As to the kind of experiment: Competitive BRET in absence or presence of exogenous EGF. The format is binding. More on the design: made in house; host or cells: HEK293 cells. On the procedure:
as §1
The binding affinities for EGFR of PS-ASOs with various sugar modifications were measured with competitive BRET, as described in Example 1. 10 nM compound no. […]

Data set [7] deals with T2, Purified recombinant EGF (Homo sapiens, UniProt P01133).
T2 construct: purchased ThermoFisher PHG0311L
T2 sequence (P01133 971-1023 limits assumed): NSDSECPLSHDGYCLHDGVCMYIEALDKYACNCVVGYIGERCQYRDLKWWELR
The data set is described as follows: Membrane binding assay, EGF. The following applies: EGF 3 nM to 3 μM. On the procedure:
(§2) A membrane binding assay was performed to test the binding affinities of modified oligonucleotides to EGF and EGFR. Purified recombinant EGF (PHG0311L, ThermoFisher) or EGFR protein (PV3872, ThermoFisher) were incubated with FITC-labeled phosphorothioate oligonucleotide, compound no. 256903 or FITC-labeled phosphate oligonucleotide, PO-ASO, in binding buffer (20 mM Tris-HCl, pH 7.5, 150 mM NaCl, 1 mM DTT, 10% glycerol) for 1 hr at 37° C. Each reaction contained purified EGF at 3 nM to 3 μM or recombinant EGFR at 5 nM to 150 nM. Samples were loaded onto a hyband ECL nitrocellulose membrane (GE Healthcare) and soaked in wash buffer (20 mM Tris-HcCl, pH 7.5, 250 mM NaCl). Protein-bound ASOs were transferred to the membrane by applying a vaccum in a 96-well Bio-Rad Bio-Dot apparatus. After washing, membranes were air-dried and scanned using a phoshoimager (GE Healthcare). Kds were calculated for compound no. 256903 using Prism. The results below represent an average of three replicate experiments. […] In contrast, compound no. 256903 bound to both EGF and EGFR, with a higher affinity for EGFR than for EGF.

For data set [8], the target named is T1, EGFR. As to the kind of experiment: Membrane binding assay, EGFR. More on the design: purchased ThermoFisher PV3872. The following applies: EGFR 5 nM to 150 nM. Here is the method: as §2

In the oligonucleotide strings, read from the 5' end, every base follows the letter of its sugar. An asterisk marks phosphorothioate; unmarked linkages are phosphodiester. Other units and linkages are bracketed, terminal groups are in braces. A string of capitals states the bases alone. e = 2'-O-(2-methoxyethyl) (MOE); {AF594} = Alexa Fluor 594 dye; k = constrained ethyl (cEt); {FITC} = fluorescein label; [5mC] = 5-methylcytosine; d = 2'-deoxy (DNA)

As to “AF594-GksGksTks^mCdsGdsAds^mCds^mCdsGdsAdsAdsGdsTds^mCksAksTk (antisense GGTCGACCGAAGTCAT; 5'-AF594 label, cEt/MOE, 5-methylC, phosphorothioate, chemistry not fully specified) [compound 1024788]”, the EC50 (commonly the concentration needed to bring the measured effect to its halfway point) in data set [1] was 525 nM.
On the same count and under the same terms, as for “AF594-GksGks^mCdsTdsAds^mCdsTdsAds^mCdsGds^mCds^mCdsGdsTks^mCksAk (antisense {AF594}-kG*kG*d[5mC]*dT*dA*d[5mC]*dT*dA*d[5mC]*dG*d[5mC]*d[5mC]*dG*kT*k[5mC]*kA) [compound 936533]”, the figure is 551 nM; as for “AF594-Gks^mCksAksTdsGdsTdsTds^mCdsTds^mCddsAds^mCdsAdsTksTksAk (antisense {AF594}-kG*k[5mC]*kA*dT*dG*dT*dT*d[5mC]*dT*d[5mC]*dA*d[5mC]*dA*kT*kT*kA) [compound 1055615]”, 746 nM.
The same measure, in the same setting: next, “AF594-^mCes^mCesTesTes^mCes^mCds^mCdsTdsGdsAdsAdsGdsGdsTdsTds^mCes^mCesTes^mCes^mCe (antisense {AF594}-e[5mC]*e[5mC]*eT*eT*e[5mC]*d[5mC]*d[5mC]*dT*dG*dA*dA*dG*dG*dT*dT*e[5mC]*e[5mC]*eT*e[5mC]*e[5mC]) [compound 1024789]”: 202 nM.
Turning to “Biotin-TEG-^mCesTesGes^mCesTesAdsGds^mCds^mCdsTds^mCds^ioUdsGdsGdsAdsTesTGesTesGesAe [compound 451104]”, the “competition by exogenous EGF for binding to EGFR” value in data set [2] (A431 cells treated with 100, 200 or 400 ng/mL EGF, then lysed) is reported as “did not compete”. Further, the “recovery of EGFR, nucleolin, or TCP1β from the beads on direct addition of EGF” value in data set [2] (EGF added to cell lysates during elution) is listed as “did not significantly alter”.
“CTGCTAGCCTCTGGATTTGA (sugars from the 5' end e5 d10 e5, all phosphorothioate, methylation of C not given here) [compound 116847, 5-10-5 2′-MOE gapmer, phosphorothioate]”: the “EGFR synthesis and degradation” value in data set [3] (16 hours incubation, relative to cells not incubated with an ASO) is listed as “unchanged”. The “Relative Abundance of EGFR (%)” value in data set [3] (Time 0 hr) came to 103%; in data set [3] (Time 4 hr) it was 91%; in data set [3] (Time 16 hr), 69%; in data set [3] (Time 24 hr) it was 54%. The EGF-EGFR signaling entry in data set [4] (16 hours incubation, then EGF) is listed as “not affected”. For the same substance, the “p-EGFR (%)” value was determined as 89% in data set [4] (Time 0.5 hr), 76% in data set [4] (Time 1 hr), 85% in data set [4] (Time 2 hr) and 55% in data set [4] (Time 4 hr). The “p-ERK (%)” value is recorded as 102% in data set [4] (Time 0.5 hr), 94% in data set [4] (Time 1 hr), 85% in data set [4] (Time 2 hr) and 87% in data set [4] (Time 4 hr). The EC50 in data set [5] (Table 5) was found to be 181 nM; in data set [5] (Table 6) it was 1660 nM. Moreover, the “Bret Ratio (% Max)” value amounted to 15.0 % Max in data set [6] (0.01 nM, EGF added 0); 13.3 % Max in data set [6] (0.01 nM, EGF added 100 ng/mL); 15.4 % Max in data set [6] (0.03 nM, EGF added 0); 12.4 % Max in data set [6] (0.03 nM, EGF added 100 ng/mL); 16.2 % Max in data set [6] (0.1 nM, EGF added 0); 13.2 % Max in data set [6] (0.1 nM, EGF added 100 ng/mL). Besides, the “Bret Ratio (% Max)” value in data set [6] (0.30 nM, EGF added 0) is on record as 19.6 % Max; in data set [6] (0.30 nM, EGF added 100 ng/mL), 15.1 % Max; in data set [6] (1.0 nM, EGF added 0) it was 26.1 % Max; in data set [6] (1.0 nM, EGF added 100 ng/mL), 18.0 % Max; in data set [6] (3.0 nM, EGF added 0), 32.6 % Max; in data set [6] (3.0 nM, EGF added 100 ng/mL), 24.2 % Max. Besides, the “Bret Ratio (% Max)” value in data set [6] (10.0 nM, EGF added 0) came to 41.8 % Max; in data set [6] (10.0 nM, EGF added 100 ng/mL) it was 30.7 % Max; in data set [6] (30.0 nM, EGF added 0) it was 52.8 % Max; in data set [6] (30.0 nM, EGF added 100 ng/mL) it was 39.7 % Max; in data set [6] (100 nM, EGF added 0) it was 64.1 % Max; in data set [6] (100 nM, EGF added 100 ng/mL), 54.7 % Max. For the same substance, the “Bret Ratio (% Max)” value in data set [6] (300 nM, EGF added 0) was found to be 70.8 % Max; in data set [6] (300 nM, EGF added 100 ng/mL) it was 63.8 % Max; in data set [6] (1000 nM, EGF added 0) it was 82.9 % Max; in data set [6] (1000 nM, EGF added 100 ng/mL), 77.4 % Max; in data set [6] (3000 nM, EGF added 0), 99.5 % Max; in data set [6] (3000 nM, EGF added 100 ng/mL) it was 94.2 % Max.
On to “FITC-^mCeoTeoGeo^mCeoTeoAdoGdo^mCds^mCdoTdo^mCdoTdoGdoGdoAdoTeoTeoTeoGeoAe (antisense {FITC}-e[5mC]eTeGe[5mC]eTdAdGd[5mC]*d[5mC]dTd[5mC]dTdGdGdAeTeTeTeGeA) [PO-ASO, FITC-labeled phosphate oligonucleotide]”, for which, in data set [7], the “interaction with EGF” value was “did not appreciably interact”. In data set [8], the “interaction with EGFR” value was “did not appreciably interact”.
